According to ChEMBL document CHEMBL4052645, “Discovery of potent and efficacious pyrrolopyridazines as dual JAK1/3 inhibitors” (Bioorg Med Chem Lett, 2017):

Legend:
[1] = target: NUAK family SNF1-like kinase 2 (Homo sapiens) (UniProt Q9H093); assay: Inhibition of human NUAK2 (P22 to A333 residues) expressed in mammalian expression system assessed as residual activity at 50 nM by KINOMEscan assay relative to control
[2] = target: 5'-AMP-activated protein kinase catalytic subunit alpha-2 (Homo sapiens) (UniProt P54646); assay: Inhibition of wild-type human partial length AMPK alpha2 (M1 to E306 residues) expressed in bacterial expression system assessed as residual activity at 50 nM by Kinomescan method relative to control
[3] = target: Serine/threonine-protein kinase DCLK3 (Homo sapiens) (UniProt Q9C098); assay: Inhibition of wild-type human partial length DCAMKL3 (E140 to V628 residues) expressed in bacterial expression system assessed as residual activity at 50 nM by Kinomescan method relative to control
[4] = target: Serine/threonine-protein kinase Nek4 (Homo sapiens) (UniProt P51957); assay: Inhibition of wild-type human full length NEK4 (M1 to F841 residues) expressed in mammalian expression system assessed as residual activity at 50 nM by Kinomescan method relative to control
[5] = target: Ribosomal protein S6 kinase alpha-1 (Homo sapiens) (UniProt Q15418); assay: Inhibition of wild-type human partial length N-terminal RSK1 Kinase domain 1 (M1 to E388 residues) expressed in bacterial expression system assessed as residual activity at 50 nM by Kinomescan method relative to control
[6] = target: Serine/threonine-protein kinase MRCK alpha (Homo sapiens) (UniProt Q5VT25); assay: Inhibition of wild-type human partial length MRCKA (L57 to V418 residues) expressed in bacterial expression system assessed as residual activity at 50 nM by Kinomescan method relative to control
[7] = target: Mitogen-activated protein kinase kinase kinase kinase 5 (Homo sapiens) (UniProt Q9Y4K4); assay: Inhibition of recombinant human KHS1 (M1 to P297 residues) expressed in bacterial expression system assessed as residual activity at 50 nM by Kinomescan method relative to control
[8] = target: Mitogen-activated protein kinase 8 (Homo sapiens) (UniProt P45983); assay: Inhibition of wild-type human full length JNK1 (M1 to Q384 residues) expressed in mammalian expression system assessed as residual activity at 50 nM by Kinomescan method relative to control
[9] = target: Phosphorylase b kinase gamma catalytic chain, skeletal muscle/heart isoform (Homo sapiens) (UniProt Q16816); assay: Inhibition of wild-type human full length PHKG1 (M1 to Y387 residues) expressed in bacterial expression system assessed as residual activity at 50 nM by Kinomescan method relative to control
[10] = target: Fibroblast growth factor receptor 4 (Homo sapiens) (UniProt P22455); assay: Inhibition of wild-type human partial length FGFR4 (G402 to E713 residues) expressed in bacterial expression system assessed as residual activity at 50 nM by Kinomescan method relative to control
[11] = target: Serine/threonine-protein kinase PAK 1 (Homo sapiens) (UniProt Q13153); assay: Inhibition of wild-type human partial length PAK1 (S149 to H545 residues) expressed in bacterial expression system assessed as residual activity at 50 nM by Kinomescan method relative to control
[12] = target: Myosin light chain kinase 2, skeletal/cardiac muscle (Homo sapiens) (UniProt Q9H1R3); assay: Inhibition of wild-type human partial length SKMLCK (D258 to K570 residues) expressed in bacterial expression system assessed as residual activity at 50 nM by Kinomescan method relative to control
[13] = target: Serine/threonine-protein kinase TBK1 (Homo sapiens) (UniProt Q9UHD2); assay: Inhibition of wild-type human full length TBK1 (M1 to L729 residues) expressed in mammalian expression system assessed as residual activity at 50 nM by Kinomescan method relative to control
[14] = target: Cyclin-dependent kinase 7 (Homo sapiens) (UniProt P50613); assay: Inhibition of wild-type human full length CDK7 (M1 to L344 residues) expressed in mammalian expression system assessed as residual activity at 50 nM by Kinomescan method relative to control
[15] = target: Mitogen-activated protein kinase kinase kinase 13 (Homo sapiens) (UniProt O43283); assay: Inhibition of wild-type human full length LZK (M1 to W966 residues) expressed in mammalian expression system assessed as residual activity at 50 nM by Kinomescan method relative to control
[16] = target: Casein kinase I isoform delta (Homo sapiens) (UniProt P48730); assay: Inhibition of wild-type human full length CK1D (M1 to K409 residues) expressed in bacterial expression system assessed as residual activity at 50 nM by Kinomescan method relative to control
[17] = target: Tyrosine-protein kinase Fyn (Homo sapiens) (UniProt P06241); assay: Inhibition of wild-type human partial length FYN (T243 to L534 residues) expressed in bacterial expression system assessed as residual activity at 50 nM by Kinomescan method relative to control
[18] = target: Tyrosine-protein kinase ABL1 (Homo sapiens) (UniProt P00519); assay: Inhibition of wild-type human non-phosphorylated ABL1 (S229 to K512 residues) expressed in mammalian expression system assessed as residual activity at 50 nM by Kinomescan method relative to control
[19] = target: Cyclin-dependent kinase 2 (Homo sapiens) (UniProt P24941); assay: Inhibition of wild-type human full length CDK2 (M1 to L298 residues) expressed in bacterial expression system assessed as residual activity at 50 nM by Kinomescan method relative to control
[20] = target: Fibroblast growth factor receptor 2 (Homo sapiens) (UniProt P21802); assay: Inhibition of wild-type human partial length FGFR2 (D457 to E769 residues) expressed in bacterial expression system assessed as residual activity at 50 nM by Kinomescan method relative to control
[21] = target: Vascular endothelial growth factor receptor 2 (Homo sapiens) (UniProt P35968); assay: Inhibition of wild-type human partial length KDR (R787 to P1253 residues) expressed in mammalian expression system assessed as residual activity at 50 nM by Kinomescan method relative to control
[22] = target: Ribosomal protein S6 kinase alpha-4 (Homo sapiens) (UniProt O75676); assay: Inhibition of wild-type human partial length N-terminal MSK2 kinase domain 1 expressed in bacterial expression system assessed as residual activity at 50 nM by Kinomescan method relative to control
[23] = target: Serine/threonine-protein kinase 33 (Homo sapiens) (UniProt Q9BYT3); assay: Inhibition of wild-type human full length STK33 (M1 to L514 residues) expressed in bacterial expression system assessed as residual activity at 50 nM by Kinomescan method relative to control
[24] = target: NT-3 growth factor receptor (Homo sapiens) (UniProt Q16288); assay: Inhibition of wild-type human partial length TRKC (Q531 to G825 residues) expressed in mammalian expression system assessed as residual activity at 50 nM by Kinomescan method relative to control
[25] = target: Tyrosine-protein kinase receptor TYRO3 (Homo sapiens) (UniProt Q06418); assay: Inhibition of wild-type human partial length TYRO3 (S497 to T814 residues) expressed in bacterial expression system assessed as residual activity at 50 nM by Kinomescan method relative to control

Sequence of NT-3 growth factor receptor (Homo sapiens) (Q16288 32-839 limits assumed): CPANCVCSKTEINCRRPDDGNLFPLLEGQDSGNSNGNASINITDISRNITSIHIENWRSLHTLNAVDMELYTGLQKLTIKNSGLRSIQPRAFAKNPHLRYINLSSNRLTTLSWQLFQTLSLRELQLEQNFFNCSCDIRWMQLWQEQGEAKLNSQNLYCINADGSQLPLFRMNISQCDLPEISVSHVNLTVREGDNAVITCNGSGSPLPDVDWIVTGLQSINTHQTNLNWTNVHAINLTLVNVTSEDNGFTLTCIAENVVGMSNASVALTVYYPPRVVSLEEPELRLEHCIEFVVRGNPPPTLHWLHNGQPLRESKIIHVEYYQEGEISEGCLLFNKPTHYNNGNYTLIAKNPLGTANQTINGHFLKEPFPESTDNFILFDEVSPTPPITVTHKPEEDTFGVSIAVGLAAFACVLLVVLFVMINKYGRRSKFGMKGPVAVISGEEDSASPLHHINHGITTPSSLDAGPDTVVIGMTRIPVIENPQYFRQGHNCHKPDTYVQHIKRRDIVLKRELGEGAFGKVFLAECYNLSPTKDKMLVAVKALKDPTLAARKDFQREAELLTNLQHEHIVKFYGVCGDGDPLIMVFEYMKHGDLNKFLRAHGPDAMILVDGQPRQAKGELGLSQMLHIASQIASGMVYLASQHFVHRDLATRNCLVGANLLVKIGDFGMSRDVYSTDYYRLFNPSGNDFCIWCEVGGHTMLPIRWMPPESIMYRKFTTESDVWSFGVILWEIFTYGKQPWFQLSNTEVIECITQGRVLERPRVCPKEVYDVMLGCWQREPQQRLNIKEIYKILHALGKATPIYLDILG
Sequence of Ribosomal protein S6 kinase alpha-4 (Homo sapiens) (O75676 whole entry, looked up, the tested form may be a part): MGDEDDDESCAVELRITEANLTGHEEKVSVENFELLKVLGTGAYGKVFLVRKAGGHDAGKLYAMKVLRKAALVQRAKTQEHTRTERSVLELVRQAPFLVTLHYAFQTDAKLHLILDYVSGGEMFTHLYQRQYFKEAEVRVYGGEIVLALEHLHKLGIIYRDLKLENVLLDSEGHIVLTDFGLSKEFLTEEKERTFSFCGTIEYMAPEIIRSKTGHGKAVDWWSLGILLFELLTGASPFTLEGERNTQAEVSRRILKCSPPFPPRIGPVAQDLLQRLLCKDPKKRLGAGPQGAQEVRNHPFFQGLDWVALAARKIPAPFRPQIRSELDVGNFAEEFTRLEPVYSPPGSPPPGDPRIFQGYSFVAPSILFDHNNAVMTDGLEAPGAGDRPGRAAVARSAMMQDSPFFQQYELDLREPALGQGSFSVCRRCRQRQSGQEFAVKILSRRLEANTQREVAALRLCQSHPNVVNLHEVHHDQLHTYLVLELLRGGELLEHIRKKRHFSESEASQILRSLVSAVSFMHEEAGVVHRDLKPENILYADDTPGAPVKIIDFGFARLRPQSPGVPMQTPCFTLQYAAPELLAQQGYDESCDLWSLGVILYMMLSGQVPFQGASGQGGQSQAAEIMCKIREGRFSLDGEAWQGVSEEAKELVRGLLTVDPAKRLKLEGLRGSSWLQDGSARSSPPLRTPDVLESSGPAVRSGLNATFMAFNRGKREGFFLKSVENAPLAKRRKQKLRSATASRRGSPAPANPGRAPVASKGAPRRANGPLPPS
Sequence of Mitogen-activated protein kinase kinase kinase kinase 5 (Homo sapiens) (Q9Y4K4 whole entry, looked up, the tested form may be a part): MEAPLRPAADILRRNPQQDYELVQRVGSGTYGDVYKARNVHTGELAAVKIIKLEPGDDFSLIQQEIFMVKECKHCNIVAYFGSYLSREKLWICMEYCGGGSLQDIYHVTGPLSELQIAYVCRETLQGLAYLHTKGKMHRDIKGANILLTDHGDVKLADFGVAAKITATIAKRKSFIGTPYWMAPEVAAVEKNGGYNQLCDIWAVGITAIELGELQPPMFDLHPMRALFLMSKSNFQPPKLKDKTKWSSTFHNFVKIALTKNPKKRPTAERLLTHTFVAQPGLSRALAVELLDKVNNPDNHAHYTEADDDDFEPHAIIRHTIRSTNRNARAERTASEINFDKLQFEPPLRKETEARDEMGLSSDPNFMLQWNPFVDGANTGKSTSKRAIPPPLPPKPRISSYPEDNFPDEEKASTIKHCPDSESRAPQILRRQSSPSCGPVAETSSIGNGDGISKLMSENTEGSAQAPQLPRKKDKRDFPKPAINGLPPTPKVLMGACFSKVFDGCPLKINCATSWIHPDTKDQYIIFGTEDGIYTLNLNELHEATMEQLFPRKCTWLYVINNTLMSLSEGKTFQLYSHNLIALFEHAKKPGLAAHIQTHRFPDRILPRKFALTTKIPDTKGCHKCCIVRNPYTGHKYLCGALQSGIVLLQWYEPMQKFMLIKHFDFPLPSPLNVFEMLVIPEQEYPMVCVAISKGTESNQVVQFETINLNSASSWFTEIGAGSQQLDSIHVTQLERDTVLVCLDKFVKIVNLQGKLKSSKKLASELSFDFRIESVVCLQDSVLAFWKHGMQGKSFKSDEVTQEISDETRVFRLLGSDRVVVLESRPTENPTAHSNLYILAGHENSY
Sequence of Tyrosine-protein kinase Fyn (Homo sapiens) (P06241 2-537 limits assumed): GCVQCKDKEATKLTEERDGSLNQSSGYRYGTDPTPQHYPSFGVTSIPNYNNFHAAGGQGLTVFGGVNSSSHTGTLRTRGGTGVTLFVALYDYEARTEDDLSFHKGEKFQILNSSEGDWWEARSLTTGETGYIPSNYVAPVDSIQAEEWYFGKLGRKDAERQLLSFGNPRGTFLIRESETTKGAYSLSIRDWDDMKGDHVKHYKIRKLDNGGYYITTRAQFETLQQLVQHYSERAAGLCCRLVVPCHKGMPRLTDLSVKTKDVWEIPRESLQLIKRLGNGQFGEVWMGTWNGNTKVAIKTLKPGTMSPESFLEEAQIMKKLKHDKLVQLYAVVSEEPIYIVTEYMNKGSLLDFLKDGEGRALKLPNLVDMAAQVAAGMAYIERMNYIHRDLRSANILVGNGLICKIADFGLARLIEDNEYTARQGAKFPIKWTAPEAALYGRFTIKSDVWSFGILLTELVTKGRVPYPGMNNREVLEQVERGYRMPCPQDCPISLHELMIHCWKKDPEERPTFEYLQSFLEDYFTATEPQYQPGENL
Sequence of Serine/threonine-protein kinase 33 (Homo sapiens) (Q9BYT3 whole entry, looked up, the tested form may be a part): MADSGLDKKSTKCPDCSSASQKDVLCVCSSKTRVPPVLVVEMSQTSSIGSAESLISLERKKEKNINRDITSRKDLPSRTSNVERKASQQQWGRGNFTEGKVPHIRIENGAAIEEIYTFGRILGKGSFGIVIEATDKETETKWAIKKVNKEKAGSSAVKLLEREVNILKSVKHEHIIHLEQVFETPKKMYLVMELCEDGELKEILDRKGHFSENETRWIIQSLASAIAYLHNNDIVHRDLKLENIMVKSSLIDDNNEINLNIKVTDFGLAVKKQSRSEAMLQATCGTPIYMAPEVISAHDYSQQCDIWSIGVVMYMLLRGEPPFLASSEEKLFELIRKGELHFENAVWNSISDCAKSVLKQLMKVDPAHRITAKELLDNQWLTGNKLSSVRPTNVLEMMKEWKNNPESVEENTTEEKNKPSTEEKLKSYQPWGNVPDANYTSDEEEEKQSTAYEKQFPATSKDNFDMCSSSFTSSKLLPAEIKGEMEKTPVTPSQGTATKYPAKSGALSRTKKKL
Sequence of 5'-AMP-activated protein kinase catalytic subunit alpha-2 (Homo sapiens) (P54646 whole entry, looked up, the tested form may be a part): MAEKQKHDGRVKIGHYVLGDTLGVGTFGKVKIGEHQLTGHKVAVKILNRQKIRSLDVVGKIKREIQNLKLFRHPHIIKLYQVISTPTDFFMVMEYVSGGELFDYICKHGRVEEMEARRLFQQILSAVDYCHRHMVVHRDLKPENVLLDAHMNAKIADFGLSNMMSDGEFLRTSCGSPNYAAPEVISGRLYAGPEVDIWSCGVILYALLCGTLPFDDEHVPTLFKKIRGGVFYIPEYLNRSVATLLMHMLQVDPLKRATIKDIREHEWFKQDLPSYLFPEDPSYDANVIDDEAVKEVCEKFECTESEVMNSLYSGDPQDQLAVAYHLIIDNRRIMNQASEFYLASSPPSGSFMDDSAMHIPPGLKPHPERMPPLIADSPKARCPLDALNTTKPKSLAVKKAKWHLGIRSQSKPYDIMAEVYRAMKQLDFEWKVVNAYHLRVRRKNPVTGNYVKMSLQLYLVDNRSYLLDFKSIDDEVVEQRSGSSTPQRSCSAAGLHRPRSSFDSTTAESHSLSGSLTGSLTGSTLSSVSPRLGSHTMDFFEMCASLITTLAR
Sequence of Cyclin-dependent kinase 7 (Homo sapiens) (P50613 whole entry, the tested form may be a part): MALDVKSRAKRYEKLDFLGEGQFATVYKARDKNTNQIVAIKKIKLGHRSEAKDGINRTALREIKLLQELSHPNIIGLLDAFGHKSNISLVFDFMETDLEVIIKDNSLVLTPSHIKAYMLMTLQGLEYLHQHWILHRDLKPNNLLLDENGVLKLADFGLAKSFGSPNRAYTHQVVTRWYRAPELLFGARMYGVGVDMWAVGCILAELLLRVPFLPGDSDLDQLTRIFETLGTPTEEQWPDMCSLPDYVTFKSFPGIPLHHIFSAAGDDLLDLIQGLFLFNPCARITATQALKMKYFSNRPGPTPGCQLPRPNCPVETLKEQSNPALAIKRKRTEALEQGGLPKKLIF
Sequence of Serine/threonine-protein kinase PAK 1 (Homo sapiens) (Q13153 whole entry, the tested form may be a part): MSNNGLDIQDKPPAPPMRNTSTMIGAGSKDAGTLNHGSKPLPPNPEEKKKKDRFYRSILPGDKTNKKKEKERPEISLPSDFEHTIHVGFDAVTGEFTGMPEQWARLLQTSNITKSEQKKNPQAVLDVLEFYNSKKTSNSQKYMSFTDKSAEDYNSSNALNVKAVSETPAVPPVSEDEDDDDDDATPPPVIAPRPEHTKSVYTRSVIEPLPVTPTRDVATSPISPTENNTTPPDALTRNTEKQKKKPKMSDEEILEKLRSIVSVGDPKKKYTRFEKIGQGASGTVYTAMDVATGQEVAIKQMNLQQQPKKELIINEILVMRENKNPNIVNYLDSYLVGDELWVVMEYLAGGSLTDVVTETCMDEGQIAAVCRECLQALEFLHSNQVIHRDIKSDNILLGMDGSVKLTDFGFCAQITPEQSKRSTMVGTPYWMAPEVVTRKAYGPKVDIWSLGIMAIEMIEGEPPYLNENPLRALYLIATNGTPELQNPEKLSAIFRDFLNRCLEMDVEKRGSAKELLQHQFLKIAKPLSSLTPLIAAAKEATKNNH

Row | SMILES | Activity [1] [%] | Activity [2] [%] | Activity [3] [%] | Activity [4] [%] | Activity [5] [%] | Activity [6] [%] | Activity [7] [%] | Activity [8] [%] | Activity [9] [%] | Activity [10] [%] | Activity [11] [%] | Activity [12] [%] | Activity [13] [%] | Activity [14] [%] | Activity [15] [%] | Activity [16] [%] | Activity [17] [%] | Activity [18] [%] | Activity [19] [%] | Activity [20] [%] | other results
1 | COc1ccc(-c2cc3c(N[C@@H]4CC[C@](C)(N)C4(C)C)c(C(N)=O)cnn3c2)cn1 | 7 | 74 | 64 | 100 | 100 | 97 | 100 | 88 | 100 | 91 | 96 | 100 | 97 | 84 | 90 | 100 | 100 | 90 | 88 | 89 | Activity [21]: 88%; Activity [22]: 100%; Activity [23]: 100%; Activity [24]: 100%; Activity [25]: 89%
2 | CC1(C)[C@H](Nc2c(C(N)=O)cnn3cc(-c4ccccc4)cc23)CC[C@]1(C)N | 2.7 | 38 | 39 | 52 | 67 | 74 | 80 | 81 | 81 | 88 | 88 | 90 | 90 | 93 | 93 | 98 | 99 | 100 | 100 | 100 | Activity [21]: 100%; Activity [22]: 100%; Activity [23]: 100%; Activity [24]: 100%; Activity [25]: 100%
